Measurements published in patent US10961189B2, “Spiro-lactam NMDA receptor modulators and uses thereof” (Aptinyx Inc., priority 2016, dated 2021).

Tested on: rats
Test: positive emotional learning (PEL) test, 50-kHz ultrasonic vocalizations
Assay type: in vivo, rat
Settings: PO, one hour after administration
Procedure: Experiments were conducted as described in Burgdorf et al., “The effect of selective breeding for differential rates of 50-kHz ultrasonic vocalizations on emotional behavior in rats,” Devel. Psychobiol., 51:34-46 (2009). Rat 50-kHz ultrasonic vocalization (hedonic USVs) is a validated model for the study of positive affective state and is best elicited by rough-and-tumble play.
The PEL assay measures the acquisition of positive (hedonic) 50-kHz ultrasonic vocalizations (USVs) to a social stimulus, heterospecific rough and tumble play stimulation. Heterospecific rough-and-tumble play stimulation was administered by the experimenter's right hand. One hour after administration of test compound or vehicle negative control (0.5% sodium carboxymethyl cellulose in […] sterile saline), animals received 3 min of heterospecific rough-and-tumble play that consisted of alternating 15 sec blocks of heterospecific play and 15 sec of no-stimulation. High frequency ultrasonic vocalizations (USVs) were recorded and analyzed by sonogram with Avasoft SASlab Pro (Germany) as previously described by Burgdorf et al., “Positive emotional learning is regulated in the medial prefrontal cortex by GluN2B-containing NMDA receptors,” Neuroscience, 192:515-523 (2011). Frequency modulated 50-kHz USVs that occurred during each of the no-stimulation periods were quantified to measure PEL. Animals were not habituated to play stimulation before testing. Positive emotional learning was measured during the conditioned stimulus (CS) trials preceding the tickle unconditioned stimulus (UCS) trials. Animals received 15 second trials consisting of 6 CS and 6 UCS trials each (3 min total).
The table below summarizes the findings. As each experiment includes its own vehicle group, an example (typical) vehicle score is shown. Max effect (mean number of 50 kHz USVs per 15 seconds) is reported as ^: <6.0; *: 6-10.9; **: 11-16.9; ***: 17-22.

Row | SMILES | Max Effect (mean number of 50 kHz USVs per 15 seconds) (dose .001-1 mg/kg) | Max Effect (mean number of 50 kHz USVs per 15 seconds) (dose .1 mg/kg)
1 | CC1CCC2(CC1)CNC2=O (racemic) [Compound AD, 7-methyl-2-azaspiro[3.5]nonan-1-one] | *** (***: 17-22) | 
2 | O=C1NCC12CCC(OCc1ccccc1)CC2 (single isomer, unassigned) [AI, 7-(benzyloxy)-2-azaspiro[3.5]nonan-1-one] | ** (**: 11-16.9) | 
3 | C[C@@H](O)[C@H](NC1CCC2(CC1)CNC2=O)C(N)=O (single isomer, unassigned) [AP] |  | ** (**: 11-16.9)
4 | COc1ccc(CN2CC3(CCC(O)CC3)C2=O)cc1 (centres unmarked) [AG] | ** (**: 11-16.9) | 
5 | O=C1NCC12CCC(O)CC2 (centres unmarked) [AL, 7-hydroxy-2-azaspiro[3.5]nonan-1-one] | ** (**: 11-16.9) | 
